Measurements from patent publication US8206732B2, “Pyrithione biocides enhanced by silver, copper, or zinc ions” (Arch Chemicals, Inc., priority 1999, dated 2012).
Several values for one entry are separate records, joined by “and”; a condition that tells them apart may be missing. Equal values may be shown once.

How the values were obtained:
[1] = system: Candida albicans 10251; test: Checkerboard MIC test, pyrithiones with silver salts; type: cell-based; details: NaPT alone or in the inhibitory mixture with silver salt; TSB pH 7.3, 35° C., 1 to 2 days
[2] = system: Staphylococcus aureus ATCC 27217; test: Checkerboard MIC test, pyrithiones with zinc salts; type: cell-based; details: pyrithione alone or pyrithione concentration in the inhibitory mixture; TSB, 28 C, 3 days
[3] = system: Escherichia coli 10536; test: Checkerboard MIC test, pyrithiones with silver salts; type: cell-based; details: NaPT alone or in the inhibitory mixture with silver salt; TSB pH 7.3, 35° C., 1 to 2 days
[4] = system: Pseudomonas aeruginosa NCIMB 6749; test: Zone of inhibition test (paper disc on TSA); type: cell-based; details: 6.5 mm discs; 0.135% pyrithione, 0.1% ZnCl2 or both; 28° C., 24 hr
[5] = system: Pseudomonas aeruginosa 9027; test: Checkerboard MIC test, pyrithiones with silver salts; type: cell-based; details: NaPT alone or in the inhibitory mixture with silver salt; TSB pH 7.3, 35° C., 1 to 2 days
[6] = system: P. aeruginosa 9027 free-living cells; test: Viable free-living cells in bulk metalworking fluid (Example 5); type: cell-based, Pseudomonas aeruginosa; details: 100 PPM NaPT; for viable free-living cells in the bulk fluid: 5% soluble oil MWF, 2.5 PPM Zn(II) or both, 4 days
[7] = system: E. coli 8739 biofilm; test: Viable biofilm cells on discs in metalworking fluid (Example 5); type: cell-based, Escherichia coli; details: polycarbonate disc, 100 PPM NaPT, 10 PPM Zn (II) or both, 4 days after treatment
[8] = system: Pseudomonas aeruginosa NCIMB 6749; test: Checkerboard MIC test, pyrithiones with zinc salts; type: cell-based; details: pyrithione alone or pyrithione concentration in the inhibitory mixture; TSB, 28 C, 3 days
[9] = system: Cephalosporium sp.; test: MIC in Tryptic Soy Broth, microtiter (Example 1); type: cell-based; details: 28° C.
[10] = system: Staphylococcus aureus 27217; test: Checkerboard MIC test, pyrithiones with silver salts; type: cell-based; details: NaPT alone or in the inhibitory mixture with silver salt; TSB pH 7.3, 35° C., 1 to 2 days
[11] = system: P. aeruginosa 9027 biofilm; test: Viable biofilm cells on discs in metalworking fluid (Example 5); type: cell-based, Pseudomonas aeruginosa; details: 100 PPM NaPT; for viable biofilm cells: 5% soluble oil MWF, 2.5 PPM Zn(II) or both, 4 days
[12] = system: Pityrosporum ovale 1452; test: Checkerboard MIC test, pyrithiones with silver salts; type: cell-based; details: NaPT alone or in the inhibitory mixture with silver salt; Ushijima Medium pH 5.5, 35° C., 1 to 2 days
[13] = system: Aspergillus niger ATCC 6275; test: MIC in Tryptic Soy Broth, microtiter (Example 1); type: cell-based; details: 28° C.
[14] = system: Fusarium sp. biofilm; test: Viable biofilm cells on discs in metalworking fluid (Example 5); type: cell-based; details: polycarbonate disc, 100 PPM NaPT, 10 PPM Zn (II) or both, 4 days after treatment
Method: Experiments were conducted to investigate the efficacy of the composition of the present invention to inhibit the survival, growth, and proliferation of free-living and biofilm populations of bacteria and fungi in metalworking fluids. […] Metalworking fluids (MWF) employed included 5% soluble oil MWF, 5% semi-synthetic MWF, or 5% synthetic MWS. For testing against bacteria, metalworking fluids were supplemented with 2% (weight-to-weight ratio (w:w)) of 5 g/L yeast extract (Difco), Metalworking fluids were supplemented with 2% (weight-to-weight (w:w)) of Tryptic Soy Broth (Difco) for fungal tests.
For each experiment, three ml of a 5% metalworking fluid was added to each of twelve, sterile, 16 mm×150 mm glass culture tubes. […] Fusarium sp. was added to the tubes to final concentrations of 10^5 spores/ml for the fungal tests. Tubes incubated for 3 days at 28° C. and 180 rpms.
After the treatments additions were performed, the culture tubes resumed incubation at 28° C., 180 rpms for an additional 4 days.
After 4 days, culture tubes were removed from the incubator and viable counts of organisms from the bulk MWF fluid and the biofilm were determined using serial dilution and drop plating techniques. For biofilms, polycarbonate discs were removed from tubes, dip-rinsed in three successive washes of de-ionized water to remove loosely attached cells, and transferred to 25 mm×150 mm culture tubes containing 10 ml of sterile, de-ionized water. Biofilms were removed from discs and resuspended by vortexing tubes for 30 seconds. Bacteria were plated on to R2A Agar plates and incubated at 37° C. Fungi were plated onto Malt Agar plates and incubated at 28° C. Mean colony forming units per ml (for bulk) and per square cm (cm^2) biofilm were determined for each experimental treatment.

[15] = system: Pseudomonas aeruginosa ATCC 9027; test: MIC in Tryptic Soy Broth, microtiter (Example 1); type: cell-based; details: 28° C.
[16] = system: Staphylococcus aureus ATCC 27217; test: Zone of inhibition test (paper disc on TSA); type: cell-based; details: 6.5 mm discs; 0.135% pyrithione, 0.1% ZnCl2 or both; 28° C., 24 hr
[17] = system: Fusarium sp. and Cephalosporium sp.; test: Various mixtures of NaPT and Zn(II) against fungi in 5% metalworking fluid (Example 8, Table 10b); type: cell-based

With [Na+].[O-][n+]1ccccc1[S-] [NaPT, sodium pyrithione] the “MIC NaPT” value [1] was 16 ppm, the “MIC Pyrithione” value [2] was 4 ppm and the “MIC NaPT” value [3] was 16 ppm. The “Zone of Inhibition” value [4] was 8 mm, the “MIC NaPT” value [5] was 256 ppm and the “viable free-living cells in the bulk fluid” value (“viable free-living cells” for short) ([6]; tube with Polycarbonate surface) was 4.9 × 10^5 cells/ml. For the same compound, the “viable free-living cells” value ([6]; tube with Rubber surface) was 50 cells/ml, the “viable free-living cells” value ([6]; tube with Steel surface) was 3.5 × 10^6 cells/ml and the viable free-living microorganisms ([6]; 5% synthetic MWF, 10 PPM Zn (II) or both, 4 days after treatment) was 7.8 × 10^6 cells/ml and 7.0 × 10^5 cells/ml and 5.4 × 10^5 cells/ml. For the same compound, the viable biofilm microorganisms ([7]; 5% solub. oil MWF) was 1.6 × 10^5 cells/cm^2, the viable biofilm microorganisms ([7]; 10% TSB) was 1.4 × 10^6 cells/cm^2 and the “MIC Pyrithione” value [8] was 128 ppm. The “MIC NaPT (with 0.5 ppm Cu)” value ([9]; TSB with 0.5 ppm Cu (II), 5 days) was 16 ppm, the MIC ([9]; TSB, incubated 5 days, single agent (NaPT without Cu)) was 64 ppm and the “MIC NaPT” value [10] was 4 ppm and 8 ppm. The viable biofilm microorganisms ([11]; 5% solub. oil MWF, polycarbonate disc, 10 PPM Zn (II) or both, 4 days after treatment) was 2.0 × 10^5 cells/cm^2 and 2.6 × 10^4 cells/cm^2, the viable biofilm cells ([11]; Polycarbonate surface) was 2.8 × 10^4 cells/cm^2 and the viable biofilm cells ([11]; Rubber surface) was 5.3 × 10^2 cells/cm^2. For the same compound, the viable biofilm cells ([11]; Steel surface) was 1.1 × 10^5 cells/cm^2, the “MIC NaPT” value [12] was 4 ppm and the “MIC NaPT (with 0.5 ppm Cu)” value ([13]; TSB with 0.5 ppm Cu (II), 7-8 days) was 8 ppm. The MIC ([13]; TSB, incubated 7-8 days, single agent (NaPT without Cu)) was 128 ppm, the viable biofilm microorganisms ([14]; 5% semisynth. MWF) was 18 cells/cm^2 and the viable biofilm microorganisms ([14]; 5% solub. oil MWF) was 4.6 × 10^5 cells/cm^2. The viable biofilm microorganisms ([14]; 5% synthetic MWF) was 7.3 × 10^4 cells/cm^2, the viable biofilm microorganisms ([14]; 100% TSB) was 96 cells/cm^2 and the “MIC NaPT (with 0.5 ppm Cu)” value ([15]; TSB with 0.5 ppm Cu (II), 5-6 days) was 256 ppm. For the same compound, the MIC ([15]; TSB, incubated 5-6 days, single agent (NaPT without Cu)) was 256 ppm, the “Zone of Inhibition” value [16] was 31 mm and the Fungi/ml ([17]; semi-synthetic, NaPT 100 PPM, Day 1) was 1.1 × 10^4 Fungi/ml. The Fungi/ml ([17]; semi-synthetic, NaPT 100 PPM, Day 1, tube of the Day 1/Day 4 series) was 2.0 × 10^4 Fungi/ml, the Fungi/ml ([17]; semi-synthetic, NaPT 100 PPM, Day 2) was 1.3 × 10^3 Fungi/ml and the Fungi/ml ([17]; semi-synthetic, NaPT 100 PPM, Day 4) was 1.0 × 10^4 Fungi/ml. The Fungi/ml ([17]; semi-synthetic, NaPT 100 PPM, Day 7) was 0 Fungi/ml, the Fungi/ml ([17]; semi-synthetic, NaPT 300 PPM, Day 1) was 3.0 × 10^3 Fungi/ml and the Fungi/ml ([17]; semi-synthetic, NaPT 300 PPM, Day 2) was 570 Fungi/ml. The Fungi/ml ([17]; semi-synthetic, NaPT 300 PPM, Day 7) was 0 Fungi/ml, the Fungi/ml ([17]; semi-synthetic, NaPT 500 PPM, Day 1) was 9.0 × 10^3 Fungi/ml and the Fungi/ml ([17]; semi-synthetic, NaPT 500 PPM, Day 2) was 300 Fungi/ml. The Fungi/ml ([17]; semi-synthetic, NaPT 500 PPM, Day 7) was 0 Fungi/ml, the Fungi/ml ([17]; soluble oil, NaPT 100 PPM, Day 1) was 3.2 × 10^4 Fungi/ml and the Fungi/ml ([17]; soluble oil, NaPT 100 PPM, Day 1, tube of the Day 1/Day 4 series) was 3.6 × 10^4 Fungi/ml. For the same compound, the Fungi/ml ([17]; soluble oil, NaPT 100 PPM, Day 2) was 2.9 × 10^4 Fungi/ml, the Fungi/ml ([17]; soluble oil, NaPT 100 PPM, Day 4) was 2.9 × 10^4 Fungi/ml and the Fungi/ml ([17]; soluble oil, NaPT 100 PPM, Day 7) was 1.5 × 10^4 Fungi/ml. For the same compound, the Fungi/ml ([17]; soluble oil, NaPT 300 PPM, Day 1) was 1.7 × 10^4 Fungi/ml, the Fungi/ml ([17]; soluble oil, NaPT 300 PPM, Day 2) was 1.0 × 10^4 Fungi/ml and the Fungi/ml ([17]; soluble oil, NaPT 300 PPM, Day 7) was 560 Fungi/ml. The Fungi/ml ([17]; soluble oil, NaPT 500 PPM, Day 1) was 1.9 × 10^4 Fungi/ml, the Fungi/ml ([17]; soluble oil, NaPT 500 PPM, Day 2) was 2.8 × 10^4 Fungi/ml and the Fungi/ml ([17]; soluble oil, NaPT 500 PPM, Day 7) was 610 Fungi/ml. For the same compound, the Fungi/ml ([17]; synthetic, NaPT 100 PPM, Day 1) was 3.0 × 10^4 Fungi/ml, the Fungi/ml ([17]; synthetic, NaPT 100 PPM, Day 1, tube of the Day 1/Day 4 series) was 9.0 × 10^3 Fungi/ml and the Fungi/ml ([17]; synthetic, NaPT 100 PPM, Day 2) was 2.0 × 10^3 Fungi/ml. The Fungi/ml ([17]; synthetic, NaPT 100 PPM, Day 4) was 5.0 × 10^3 Fungi/ml, the Fungi/ml ([17]; synthetic, NaPT 100 PPM, Day 7) was 2.0 × 10^3 Fungi/ml and the Fungi/ml ([17]; synthetic, NaPT 300 PPM, Day 1) was 2.9 × 10^4 Fungi/ml. The Fungi/ml ([17]; synthetic, NaPT 300 PPM, Day 2) was 2.1 × 10^4 Fungi/ml, the Fungi/ml ([17]; synthetic, NaPT 300 PPM, Day 7) was 1.2 × 10^4 Fungi/ml and the Fungi/ml ([17]; synthetic, NaPT 500 PPM, Day 1) was 2.7 × 10^4 Fungi/ml. For the same compound, the Fungi/ml ([17]; synthetic, NaPT 500 PPM, Day 2) was 4.0 × 10^3 Fungi/ml and the Fungi/ml ([17]; synthetic, NaPT 500 PPM, Day 7) was 3.0 × 10^3 Fungi/ml.
